# Values quoted from earlier work in patent US20080171083A1, “Pharmaceutical Compositions Comprising an Amphiphilic Starch” (VECTURE LIMITED, priority 2004, published 2008).
# Structures can show the parent of a compound that is named as a salt.
# Settings: class-1 high solubility, class-2 highly permeable, low solubility, class-3 low permeability, class-4 low solubility
row,Structure (SMILES),BCS class (solubility / permeability)
1,NCC1(CC(=O)O)CCCCC1 [Gabapentin],class-3
2,COc1ccc2c(c1)c(CC(=O)O)c(C)n2C(=O)c1ccc(Cl)cc1 [Indomethacin],class-2
3,COc1ccccc1OCCNCC(O)COc1cccc2[nH]c3ccccc3c12 (stereo not shown) [Carvedilol],class-4
4,CC(C)NCC(O)COc1cccc2ccccc12 (stereo not shown) [propranolol hydrochloride],class-1
